{"source": "patent EP2664616A1", "about": "“Hydantoin and thiohydantoin derivatives as antiviral drugs” (priority 2012, dated 2013)", "data": [{"test_system": "HCV replicon Luc Neo ET", "assay": "HCV replication inhibition assay (replicon assay, luciferase reporter)", "format": "cell-based", "conditions": "Hepatitis C virus; Huh-7 cell lines containing HCV replicon Luc Neo ET; 72 hours with compound; 1 % DMSO; firefly luciferase reporter; concentration that produces 50 % of replication inhibition; read-out: EC50 Replicon LucneoET", "procedure": "(§1) The compounds according to the present invention were tested for their ability to inhibit HCV replication as follows:\n(§2) Huh-7 cell lines containing HCV replicon Luc Neo ET (Reblikon) were maintained in DMEM supplemented with 10% SVF, 2 mM glutamine, and 1 X NEAA, 100 U / ml penicillin, and 100 µg / ml streptomycine. Cells were maintained in medium supplemented with 0.5 mg/ml G418, at 37°C and 5% CO2 in a humidified atmosphere. Cells were dissociated at sub confluence with trypsin EDTA 1X.\n(§3) Replicon Luc Neo ET is bicistronic expression constructs (Lohmann et al, 1999, Science 285, 110-113). In brief, the structural genes of the HCV genome were replaced by heterologous sequences; the gene encoding the neomycin phosphotransferase (NPT) and the internal ribosome entry site (IRES) of the encephalomyocarditis virus (EMCV). The bicistronic construct is therefore composed of the following elements: HCV-IRES nucleotides 1-389 for Luc Neo ET, the NPT gene, the EMCV-IRES directing translation of downstream HCV sequences from NS2 or NS3 up to the authentic 3' end of the genome. HCV Polyprotein of Luc Neo ET replicon harbours the cell culture adaptive mutations E1202G, T1280I, K1846T. G418-resistance is only possible with cells containing high amounts of replicon.\n(§4) Cells were dissociated the day before addition of compounds and seeded in 96 well-plates at a final concentration of 27 777.77 cells.ml^-1.cm^-2 in 90µl final volume of culture medium per well and were maintained at 37°C and 5% CO2 in a humidified atmosphere for 24 hours. 10 µl of compounds to be tested were added 24 hours after seeding. Final concentration of DMSO was 1 %. Cells were incubated in the presence of compounds for 72 hours after which expression of firefly luciferase reporter gene was quantified. Briefly, culture medium was removed and cells were lysed by addition of 100 µl of lysis buffer containing 125 mM Tris Phosphate ph 7.8, 10 mM EDTA, 5 mM DTT, 50 % glycerol and 5 % Triton. Plates were vortexed 10 min at 1300 rpm. 100µl of luciferin solution 1X were added to each well. Luciferin solution contained 40 mM Tris Phosphate ph 7.8, 0.2 mM EDTA, 67 mM DTT, 2.14 mM MgCl2, 5.4 mM MgSO4, 4.7 x 10^-4 M luciferin, 5.3 x 10^-4 M ATP and 2.7 x 10^-4 M Acetyl co enzyme A. Luminescence was immediately measured with Berthold Microlumat Plus LB 96V luminometer with an integration of 1 sec. Inhibition was calculated using the formula: % inhibition = 1-[(RLUsample-RLUbackground)/(RLUsignal-RLUbackground)].\n(§5) The Table 1 below illustrates data on the biological activity of compounds of the present invention. Results are expressed as EC50 which is the concentration that produces 50 % of replication inhibition. Table 1. HCV replication inhibition assay", "units": {"EC50": "µM"}, "values": [{"compound": "COc1ccc(CCN2C(=S)N(c3ccccc3)C(=O)C2CC(=O)Nc2ccc(OC)nn2)cc1", "note": "(stereo not shown) [Example 69, 2-{3-[2-(4-methoxyphenyl)ethyl]-5-oxo-1-phenyl-2-sulfanylideneimidazolidin-4-yl}-N-(6-methoxypyridazin-3-yl)acetamide]", "EC50": "< 5"}, {"compound": "COc1ccc(CCN2C(=S)N(c3ccc(F)cc3)C(=O)C2CC(=O)Nc2ncc(OC)s2)cc1", "note": "(stereo not shown) [Example 88, 2-[1-(4-Fluorophenyl)-3-[2-(4-methoxyphenyl)ethyl]-5-oxo-2-sulfanylideneimidazolidin-4-yl]-N-(5-methoxy-1,3-thiazol-2-yl)acetamide]", "EC50": "< 0.5"}, {"compound": "COc1ncc(NC(=O)CC2C(=O)N(c3ccc(F)cc3)C(=S)N2CCc2ccc(N(C)C)cc2)cn1", "note": "(stereo not shown) [Example 79, 2-(3-{2-[4-(dimethylamino)phenyl]ethyl}-1-(4-fluorophenyl)-5-oxo-2-sulfanylideneimidazolidin-4-yl)-N-(2-methoxypyrimidin-5-yl)acetamide]", "EC50": "< 5"}, {"compound": "COc1ccc(CCN2C(=O)N(c3ccc(F)cc3)C(=O)C2CC(=O)Nc2ccc(N(C)C)cc2)cc1", "note": "(stereo not shown) [Example 42, N-[4-(dimethylamino)phenyl]-2-[1-(4-fluorophenyl)-3-[2-(4-methoxyphenyl)ethyl]-2,5-dioxoimidazolidin-4-yl]acetamide]", "EC50": "< 5"}, {"compound": "COc1ccc(CCN2C(=O)N(c3ccc(F)cc3)C(=O)C2CC(=O)Nc2ccc(N(C)C)cn2)cc1", "note": "(stereo not shown) [Example 73, N-[5-(dimethylamino)pyridin-2-yl]-2-[1-(4-fluorophenyl)-3-[2-(4-methoxyphenyl)ethyl]-2,5-dioxoimidazolidin-4-yl]acetamide]", "EC50": "< 0.5"}, {"compound": "COc1ccc(CCN2C(=O)N(c3ccc(F)cc3)C(=O)C2CC(=O)Nc2ccc(C)nn2)cc1", "note": "(stereo not shown) [Example 74, 2-[1-(4-fluorophenyl)-3-[2-(4-methoxyphenyl)ethyl]-2,5-dioxoimidazolidin-4-yl]-N-(6-methylpyridazin-3-yl)acetamide]", "EC50": "< 30"}, {"compound": "COc1ccc(CCN2C(=S)N(c3ccncc3)C(=O)C2CC(=O)Nc2ccc(OC)cc2)cc1", "note": "(stereo not shown) [Example 55, N-(4-methoxyphenyl)-2-{3-[2-(4-methoxyphenyl)ethyl]-5-oxo-1-(pyridin-4-yl)-2-sulfanylideneimidazolidin-4-yl}acetamide]", "EC50": "< 5"}, {"compound": "O=C(CC1C(=O)N(c2ccccc2)C(=S)N1CCc1ccc(Cl)cc1)Nc1ccc(Cl)c(Cl)c1", "note": "(stereo not shown) [Example 38, 2-{3-[2-(4-chlorophenyl)ethyl]-5-oxo-1-phenyl-2-sulfanylideneimidazolidin-4-yl}-N-(3,4-dichlorophenyl)acetamide]", "EC50": "< 5"}, {"compound": "COc1ccc(CCN2C(=O)N(c3ccc(F)cc3)C(=O)C2CC(=O)Nc2ccc(OC)nn2)cc1", "note": "(stereo not shown) [Example 71, 2-[1-(4-fluorophenyl)-3-[2-(4-methoxyphenyl)ethyl]-2,5-dioxoimidazolidin-4-yl]-N-(6-methoxypyridazin-3-yl)acetamide]", "EC50": "< 30"}, {"compound": "COc1ccc(CCN2C(=S)N(c3ccc(F)cc3)C(=O)C2CC(=O)Nc2ccc(N3CCCC3=O)cc2)cc1", "note": "(stereo not shown) [Example 87, 2-[1-(4-fluorophenyl)-3-[2-(4-methoxyphenyl)ethyl]-5-oxo-2-sulfanylideneimidazolidin-4-yl]-N-[4-(2-oxopyrrolidin-1-yl)phenyl]acetamide]", "EC50": "< 5"}]}, {"biological_target": "HCV replicon Luc Neo ET", "assay": "HCV replication inhibition assay (replicon assay, luciferase reporter)", "format": "cell-based", "conditions": "Huh-7 cell lines containing HCV replicon Luc Neo ET; 72 hours with compound; 1 % DMSO; firefly luciferase reporter; concentration that produces 50 % of replication inhibition; read-out: EC50 Replicon LucneoET", "procedure": "as §1, §2, §3, §4, §5", "units": {"EC50": "µM"}, "values": [{"compound": "Cc1ccsc1CCN1C(=S)N(c2ccccc2)C(=O)C1CC(=O)Nc1ccc(F)cc1", "note": "(stereo not shown) [Example 23]", "EC50": "< 5"}, {"compound": "N-[4-(dimethylamino)phenyl]-2-{4-hydroxy-3-[2-(4-methoxyphenyl)ethyl]-5-oxo-1-phenyl-2-sulfanylideneimidazolidin-4-yl}acetamide [Example 70]", "EC50": "< 0.5"}, {"compound": "O=C(CC1C(=O)N(c2ccccc2)C(=S)N1CCc1ccccc1)Nc1ccc(Cl)cc1", "note": "(stereo not shown) [Example 22]", "EC50": "< 5"}, {"compound": "COc1ccc(CCN2C(=S)N(c3ccc(F)cc3)C(=O)C2CC(=O)Nc2ccc(OC)cc2)cc1", "note": "(stereo not shown) [Example 6]", "EC50": "< 0.5"}, {"compound": "COc1ccc(NC(=O)CC2C(=O)N(c3ccc(F)cc3)C(=S)N2CCc2ccc(OCCNC(=O)OC(C)(C)C)cc2)nc1", "note": "(stereo not shown) [Example 98]", "EC50": "< 0.5"}, {"compound": "COc1ccc(NC(=O)CC2C(=O)N(c3ccc(F)cc3)C(=S)N2CCCN2CCN(Cc3ccccc3)CC2)cc1", "note": "(stereo not shown) [Example 13]", "EC50": "< 0.5"}, {"compound": "CCOc1ccc(NC(=O)CC2C(=O)N(c3cccc(C(F)(F)F)c3)C(=S)N2CCc2ccccc2F)cc1", "note": "(stereo not shown) [Example 19]", "EC50": "< 5"}, {"compound": "CCCOc1ccc(NC(=O)CC2C(=O)N(C3CCCCC3)C(=S)N2Cc2ccc(OC)cc2)cc1", "note": "(stereo not shown) [Example 29]", "EC50": "< 30"}, {"compound": "2-{3-[2-(4-chlorophenyl)ethyl]-1-(4-fluorophenyl)-4-hydroxy-5-oxo-2-sulfanylideneimidazolidin-4-yl}-N-[4-(dimethylamino)phenyl]acetamide [Example 65]", "EC50": "< 0.5"}]}]}
